Results reported in ChEMBL document CHEMBL1201862, “PubChem BioAssay data set” (2004).
Activity calls are given as the source filed them.

Tests used:
[1] = target: Epstein-Barr nuclear antigen 1 (Epstein-Barr virus (strain B95-8) (HHV-4) (Human herpesvirus 4), UniProt P03211); test: inhibition of EBV nuclear antigen 1 DNA binding – biochemical, fluorescence polarization, 1536-well, dose response (AID 2381); parameters: species or system human gammaherpesvirus 4;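 also: fluorescence polarization of a Cy5 DNA probe bound by EBNA-1 protein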
[2] = target: Lytic switch protein BZLF1 (Epstein-Barr virus (strain B95-8) (HHV-4) (Human herpesvirus 4), UniProt P03206); test: inhibition of BZLF1 ZTA DNA binding – biochemical, fluorescence polarization, Epstein-Barr virus, 1536-well, counter-screen for EBNA-1 inhibitor project, dose response (AID 2377); parameters: species or system human gammaherpesvirus 4;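 also: fluorescence polarization of Cy5-labelled ZRE DNA probe bound by purified Zta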
[3] = target: T1, Short transient receptor potential channel 4 (Mus musculus, UniProt Q9QUQ5); test: block of DAMGO-driven TRPC4 calcium entry – cell-based, HEK293 TRPC4/mu-opioid, Fluo-4 calcium, dose response (AID 434942); assay type: functional;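 also: potency of inhibitors blocking the TRPC4 calcium response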
T1 sequence (Q9QUQ5 whole entry): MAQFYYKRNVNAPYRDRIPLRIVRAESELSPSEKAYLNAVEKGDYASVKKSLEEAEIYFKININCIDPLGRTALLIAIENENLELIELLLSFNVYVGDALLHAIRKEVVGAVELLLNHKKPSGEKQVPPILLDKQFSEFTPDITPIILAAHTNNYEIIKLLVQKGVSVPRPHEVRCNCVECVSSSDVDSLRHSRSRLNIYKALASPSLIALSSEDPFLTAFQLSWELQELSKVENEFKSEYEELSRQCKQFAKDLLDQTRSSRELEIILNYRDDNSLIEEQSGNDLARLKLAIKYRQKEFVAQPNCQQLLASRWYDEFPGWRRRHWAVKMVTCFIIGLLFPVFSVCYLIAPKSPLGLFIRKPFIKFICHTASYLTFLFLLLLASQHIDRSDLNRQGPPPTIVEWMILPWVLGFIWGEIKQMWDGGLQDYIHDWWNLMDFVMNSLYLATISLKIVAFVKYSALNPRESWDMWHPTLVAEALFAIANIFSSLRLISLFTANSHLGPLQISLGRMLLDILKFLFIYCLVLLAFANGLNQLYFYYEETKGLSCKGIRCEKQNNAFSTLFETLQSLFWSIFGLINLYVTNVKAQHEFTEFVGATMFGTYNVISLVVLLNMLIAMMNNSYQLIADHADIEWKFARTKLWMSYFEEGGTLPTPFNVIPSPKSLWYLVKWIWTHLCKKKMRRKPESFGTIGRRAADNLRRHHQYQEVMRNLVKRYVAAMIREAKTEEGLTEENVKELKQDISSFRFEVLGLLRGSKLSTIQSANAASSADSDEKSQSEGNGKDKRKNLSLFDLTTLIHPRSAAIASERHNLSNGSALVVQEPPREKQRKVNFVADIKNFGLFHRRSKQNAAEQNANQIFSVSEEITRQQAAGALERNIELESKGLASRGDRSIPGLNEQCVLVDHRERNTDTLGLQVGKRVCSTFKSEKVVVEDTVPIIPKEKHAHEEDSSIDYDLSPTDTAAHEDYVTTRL

[4] = target: Peroxisome proliferator-activated receptor gamma/Nuclear receptor coactivator 1 (Homo sapiens, UniProt P37231); assay type: functional;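 also: agonist potency as compounds enhance coactivator SRC-1 recruitment to PPARgamma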
[5] = target: Peroxisome proliferator-activated receptor gamma/Nuclear receptor coactivator 2 (Homo sapiens, UniProt P37231); assay type: functional;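 also: agonist potency for raising coactivator recruitment to the receptor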
[6] = target: Peroxisome proliferator-activated receptor gamma/Nuclear receptor coactivator 3 (Homo sapiens, UniProt P37231); assay type: functional;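 also: agonist potency for raising coactivator recruitment to the receptor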
[7] = Luminescence Cell-Based Dose Response to Identify Activators of Luciferase Translation or Activity in H4-C Neuroglioblastoma Cells. [Related pubchem assays: 1829 (Project Summary), 1814 (Primary HTS)]; assay type: functional
[8] = Luminescence Cell-Based Dose Response to Identify Activators of 5'UTR Stem-Loop Driven Prion Protein mRNA Translation in H4-C Neuroglioblastoma Cells. [Related pubchem assays: 1829 (Project Summary), 1814 (Primary HTS)]; assay type: functional
[9] = Luminescence Cell-Based Dose Response HTS to Identify Activators of Luciferase Translation or Activity in H4 […] Cells. [Related pubchem assays: 1829 (Project Summary), 1814 (Primary HTS)]; assay type: functional
[10] = Luminescence Cell-Based Dose Confirmation to Identify Activators of 5'UTR Stem-Loop Driven Alpha-Synuclein mRNA Translation in H4 Neuroglioblastoma Cells. [Related pubchem assays: 1829 (Project Summary), 1814 (Primary HTS)]; assay type: functional
H4 = test: Luminescence Cell-Based Dose Response HTS to Identify Activators of 5'UTR Stem-Loop Driven Prion Protein mRNA Translation in H4 Neuroglioblastoma Cells. [Related pubchem assays: 1829 (Project Summary), 1814 (Primary HTS)]; assay type: functional; details: Homo sapiens
HEK293 = test: EBV LMP1 TES2 canonical NF-kB signalling blockers – cell-based, HEK293, luciferase, cherry-pick, dose response (AID 588343); assay type: functional; details: Homo sapiens
[11] = target: Luciferin 4-monooxygenase (Photinus pyralis, UniProt P08659); test: Counter Screen for Luciferase-based Assay Positives. [Related pubchem assays: 620, 618, 411 ]
[12] = viability loss in HEK293 cells – cell-based, plate reader, cherry-picked samples, cytotoxicity control, dose response (AID 743446); assay type: functional
[13] = toxicity toward HepG2 liver cells – cell-based, plate reader, cherry-pick, antagonist series, cytotoxicity control, dose response (AID 743416); assay type: functional
HT-1080 = test: HT1080 cell viability loss – fluorescence readout (AID 620); assay type: functional, cell-based; details: Homo sapiens
[14] = blockade of melanocortin 4 receptor signaling – cell-based, plate reader, cherry pick, counter-screen for LGR2 antagonist project, dose response (AID 743444); assay type: functional;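 also: transfected HEK 293 cells stimulated with alpha-MSH peptide; potency of inhibitors of the alpha-MSH evoked signal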
[15] = A549 cell cytotoxicity, dose response, cytotoxicity control, plate reader, cherry-pick, antagonist series (AID 743412); assay type: functional, cell-based
[16] = blockers of bursicon-stimulated LGR2 cAMP reporter – cell-based, HEK293, CRE-luciferase reporter, cherry pick, set 2, dose response (AID 743343); assay type: functional;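 also: transfected cells were stimulated with diluted bursicon conditioned medium after compound addition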

Lytic switch protein BZLF1, sequence (P03206 whole entry): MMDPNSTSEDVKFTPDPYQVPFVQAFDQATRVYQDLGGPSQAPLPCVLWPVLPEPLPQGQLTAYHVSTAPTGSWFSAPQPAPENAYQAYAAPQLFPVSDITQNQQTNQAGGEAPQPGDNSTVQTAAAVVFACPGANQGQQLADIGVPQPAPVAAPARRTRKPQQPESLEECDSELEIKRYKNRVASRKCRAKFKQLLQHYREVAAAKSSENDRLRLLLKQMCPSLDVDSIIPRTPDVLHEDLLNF
Epstein-Barr nuclear antigen 1, sequence (P03211 whole entry): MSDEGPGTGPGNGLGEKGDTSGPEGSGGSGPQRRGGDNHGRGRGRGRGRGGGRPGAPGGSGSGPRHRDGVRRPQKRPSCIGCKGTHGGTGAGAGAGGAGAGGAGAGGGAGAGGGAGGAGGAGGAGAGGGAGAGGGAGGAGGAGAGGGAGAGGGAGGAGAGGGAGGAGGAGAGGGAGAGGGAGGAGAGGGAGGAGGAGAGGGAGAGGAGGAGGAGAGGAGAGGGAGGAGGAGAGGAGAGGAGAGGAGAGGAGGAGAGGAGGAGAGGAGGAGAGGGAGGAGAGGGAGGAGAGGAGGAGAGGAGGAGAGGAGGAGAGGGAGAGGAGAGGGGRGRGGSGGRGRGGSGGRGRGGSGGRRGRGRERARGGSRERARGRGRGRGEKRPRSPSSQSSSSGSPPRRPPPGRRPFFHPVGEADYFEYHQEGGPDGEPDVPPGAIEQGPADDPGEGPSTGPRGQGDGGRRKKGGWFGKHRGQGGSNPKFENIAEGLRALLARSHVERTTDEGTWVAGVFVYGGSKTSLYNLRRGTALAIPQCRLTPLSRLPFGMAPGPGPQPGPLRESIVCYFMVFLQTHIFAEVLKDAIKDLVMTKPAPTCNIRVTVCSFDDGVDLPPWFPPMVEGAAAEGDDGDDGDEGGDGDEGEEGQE
Peroxisome proliferator-activated receptor gamma/Nuclear receptor coactivator 2, sequence (P37231 whole entry): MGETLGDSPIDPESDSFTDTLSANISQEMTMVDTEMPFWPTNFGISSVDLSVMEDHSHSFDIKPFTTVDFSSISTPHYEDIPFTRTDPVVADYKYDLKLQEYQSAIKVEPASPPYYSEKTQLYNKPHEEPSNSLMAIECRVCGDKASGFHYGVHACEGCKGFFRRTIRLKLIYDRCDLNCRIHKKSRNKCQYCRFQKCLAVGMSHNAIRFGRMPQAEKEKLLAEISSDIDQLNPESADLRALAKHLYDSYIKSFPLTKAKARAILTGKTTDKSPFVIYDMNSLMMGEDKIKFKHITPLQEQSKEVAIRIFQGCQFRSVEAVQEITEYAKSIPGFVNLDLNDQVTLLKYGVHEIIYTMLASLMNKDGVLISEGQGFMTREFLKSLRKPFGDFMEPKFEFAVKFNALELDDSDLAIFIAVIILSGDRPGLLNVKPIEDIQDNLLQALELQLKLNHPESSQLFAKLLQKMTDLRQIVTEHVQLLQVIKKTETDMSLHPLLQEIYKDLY
Peroxisome proliferator-activated receptor gamma/Nuclear receptor coactivator 2, sequence (Q15596 whole entry, further chain): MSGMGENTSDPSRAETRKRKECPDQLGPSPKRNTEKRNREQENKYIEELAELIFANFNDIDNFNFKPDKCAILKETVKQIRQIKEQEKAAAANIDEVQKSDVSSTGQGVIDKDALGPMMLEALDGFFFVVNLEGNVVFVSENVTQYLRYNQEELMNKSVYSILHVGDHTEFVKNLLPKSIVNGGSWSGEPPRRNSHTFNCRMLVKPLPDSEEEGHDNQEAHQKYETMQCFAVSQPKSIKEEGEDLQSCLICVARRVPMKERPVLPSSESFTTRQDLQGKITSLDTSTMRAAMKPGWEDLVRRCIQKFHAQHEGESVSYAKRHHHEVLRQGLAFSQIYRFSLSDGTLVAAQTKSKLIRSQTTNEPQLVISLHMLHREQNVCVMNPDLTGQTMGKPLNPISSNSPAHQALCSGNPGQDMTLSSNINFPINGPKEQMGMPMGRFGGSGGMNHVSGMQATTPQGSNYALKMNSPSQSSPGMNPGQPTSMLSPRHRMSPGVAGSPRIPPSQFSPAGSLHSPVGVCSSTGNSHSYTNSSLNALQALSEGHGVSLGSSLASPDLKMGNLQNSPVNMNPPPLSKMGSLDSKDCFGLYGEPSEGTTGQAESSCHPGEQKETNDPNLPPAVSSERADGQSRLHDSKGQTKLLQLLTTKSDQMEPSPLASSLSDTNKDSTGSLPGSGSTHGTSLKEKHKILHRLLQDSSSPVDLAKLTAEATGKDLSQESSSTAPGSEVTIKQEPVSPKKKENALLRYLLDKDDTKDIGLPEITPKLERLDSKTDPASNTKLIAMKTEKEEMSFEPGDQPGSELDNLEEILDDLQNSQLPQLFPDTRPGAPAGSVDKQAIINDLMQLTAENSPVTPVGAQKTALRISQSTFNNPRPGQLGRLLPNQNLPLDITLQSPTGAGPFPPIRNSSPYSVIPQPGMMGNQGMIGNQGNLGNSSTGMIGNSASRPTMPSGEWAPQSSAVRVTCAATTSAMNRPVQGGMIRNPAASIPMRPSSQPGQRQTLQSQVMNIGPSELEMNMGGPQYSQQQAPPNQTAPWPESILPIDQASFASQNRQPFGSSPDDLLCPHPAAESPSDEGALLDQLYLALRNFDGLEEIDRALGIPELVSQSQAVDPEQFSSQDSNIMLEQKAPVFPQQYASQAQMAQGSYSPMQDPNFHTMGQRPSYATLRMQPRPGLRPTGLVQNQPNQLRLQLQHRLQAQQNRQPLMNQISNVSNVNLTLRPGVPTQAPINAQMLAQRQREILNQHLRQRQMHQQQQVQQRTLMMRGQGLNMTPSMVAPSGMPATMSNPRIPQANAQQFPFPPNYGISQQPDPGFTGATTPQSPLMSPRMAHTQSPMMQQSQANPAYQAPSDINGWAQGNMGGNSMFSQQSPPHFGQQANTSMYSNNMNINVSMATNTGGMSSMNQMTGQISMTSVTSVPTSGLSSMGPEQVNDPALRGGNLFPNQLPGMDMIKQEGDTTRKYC
Peroxisome proliferator-activated receptor gamma/Nuclear receptor coactivator 1, sequence (P37231 whole entry): as the sequence (P37231 whole entry) above
Peroxisome proliferator-activated receptor gamma/Nuclear receptor coactivator 1, sequence (Q15788 whole entry, further chain): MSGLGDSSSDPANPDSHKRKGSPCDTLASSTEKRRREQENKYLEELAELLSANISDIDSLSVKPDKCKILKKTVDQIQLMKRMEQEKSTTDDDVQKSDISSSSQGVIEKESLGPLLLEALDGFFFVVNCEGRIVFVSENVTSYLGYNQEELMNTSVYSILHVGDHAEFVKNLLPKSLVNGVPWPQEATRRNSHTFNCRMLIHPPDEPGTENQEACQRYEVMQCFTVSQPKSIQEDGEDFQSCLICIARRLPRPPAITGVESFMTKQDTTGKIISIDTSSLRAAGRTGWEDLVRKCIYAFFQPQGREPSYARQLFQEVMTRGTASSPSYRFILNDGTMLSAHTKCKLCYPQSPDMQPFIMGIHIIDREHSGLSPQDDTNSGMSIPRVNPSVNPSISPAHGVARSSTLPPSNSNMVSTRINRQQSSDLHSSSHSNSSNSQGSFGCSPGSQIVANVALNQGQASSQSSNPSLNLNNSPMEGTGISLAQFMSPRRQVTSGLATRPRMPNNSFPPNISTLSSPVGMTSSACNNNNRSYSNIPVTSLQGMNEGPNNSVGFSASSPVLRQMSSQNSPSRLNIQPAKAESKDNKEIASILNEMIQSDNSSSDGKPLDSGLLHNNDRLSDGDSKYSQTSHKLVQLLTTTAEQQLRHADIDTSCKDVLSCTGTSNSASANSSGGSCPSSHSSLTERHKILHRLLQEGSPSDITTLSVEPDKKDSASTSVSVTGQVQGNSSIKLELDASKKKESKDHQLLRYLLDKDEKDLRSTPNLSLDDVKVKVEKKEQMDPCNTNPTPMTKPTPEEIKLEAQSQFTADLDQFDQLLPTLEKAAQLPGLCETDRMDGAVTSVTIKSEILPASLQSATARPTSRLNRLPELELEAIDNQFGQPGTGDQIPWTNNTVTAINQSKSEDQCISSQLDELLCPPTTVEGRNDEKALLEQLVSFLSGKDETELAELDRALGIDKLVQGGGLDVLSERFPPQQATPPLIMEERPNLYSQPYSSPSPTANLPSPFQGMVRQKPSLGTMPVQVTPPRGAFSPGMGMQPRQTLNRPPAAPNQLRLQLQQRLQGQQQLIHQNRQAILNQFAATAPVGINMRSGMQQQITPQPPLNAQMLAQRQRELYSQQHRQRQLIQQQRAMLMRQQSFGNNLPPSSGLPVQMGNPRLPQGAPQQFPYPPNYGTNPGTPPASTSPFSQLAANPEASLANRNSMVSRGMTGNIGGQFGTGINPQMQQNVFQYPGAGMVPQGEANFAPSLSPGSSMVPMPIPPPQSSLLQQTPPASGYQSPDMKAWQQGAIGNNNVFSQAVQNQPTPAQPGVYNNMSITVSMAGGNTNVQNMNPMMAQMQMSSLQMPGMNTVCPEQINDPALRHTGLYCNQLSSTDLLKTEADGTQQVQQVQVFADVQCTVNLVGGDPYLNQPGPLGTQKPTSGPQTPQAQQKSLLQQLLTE

With O=C(CCCCCn1c(=S)[nH]c2cc3c(cc2c1=O)OCO3)N1CCN(Cc2ccccc2)CC1 the IC50 [1] was 14.9 µM (not active) and the IC50 [2] was > 111 µM (not active).

In the case of COc1cccc(N2CC(=O)C(c3nc(O)c4ccccc4n3)=C2N)c1, the IC50 [1] is reported as 10.2 µM (not active), the IC50 [2] is reported as > 111 µM (not active) and the EC50 [3] is reported as 0.133 µM (active).

In the case of CCOC(=O)c1cnc2c(C)c(Cl)ccc2c1N1CCOCC1, the EC50 [4] is reported as > 79.4 µM (not active), the EC50 [5] is reported as > 79.4 µM (not active) and the EC50 [6] is reported as > 79.4 µM (not active).

With Cc1nc2cc(Nc3nnc(-c4ccccc4)c4ccccc34)ccc2n1C the EC50 [7] was > 12 µM (not active), the EC50 [8] was > 12 µM (not active) and the EC50 [9] was < 0.1 µM (active). For the same compound, the EC50 [10] was 2.91 µM (active) and the EC50 (H4) was 31.4 µM (active).

With O=C(Nc1ccc(CN2CCOCC2)cc1)c1cc2ccccn2n1 the AC50 (HEK293) was 3.01 µM (active), the EC50 [11] was 71.5 µM (active) and the AC50 [12] was 36 µM (active). The AC50 [13] was > 52 µM (inactive), the EC50 (HT-1080) was > 50 µM (not active) and the AC50 [14] was 5.82 µM (active). For the same compound, the AC50 [15] was > 52 µM (inactive) and the AC50 [16] was 2.6 µM (active).
